# Patent US20160296644A1, “ANTICANCER DRUG, COMPRISING A COPPER RADIOISOTOPE” (priority 2013, published 2016)
# How the values were obtained:
# DNA of the cancer cell = test: Laboratory experimental tests of Auger radioactive effect on cancer cells; settings: dosage 1.5 Bq for each cell
# Protocol: Said dosage is equal to a 1.5 Bq (Becquerel) for each cell, a quantity such that the therapeutic effectiveness of the drug is carried out through the expression of the toxicity thereof only inside the nucleus, achieving a true target therapy.
# [1] = system: solid tumours, neuroendocrine tumours, melanomas, leukaemias and lymphomas; test: Therapeutic effectiveness in cancer pathologies; settings: solid tumours (pancreas, prostate, brain, breast, ovary, head-neck, oesophagus, stomach, intestines, colon, liver, lung)
# amyloid plaques = test: Use against Alzheimer's disease (radiotracer / therapeutic agent)
# Text: In fact, it is capable of binding to the amyloid plaques, the accumulation whereof within the nerve cells characterises the presence of the pathology, and catalyses its formation process. By crossing the blood-brain barrier, the deposit of the subject drug is suitably identified inside said amyloid plaques, providing a diagnostic feedback beyond all doubts.
# In fact, the drug, by binding to said amyloid plaques, initially stabilises the growth thereof, to then slower it by braking such “drug-plaque” bonds.
compound,measurement,setting,value
"[64Cu+2].[Cl-].[Cl-] [64CuCl2, copper-64 chloride]",Auger radioactive effect on DNA of the cancer cell,DNA of the cancer cell,capable of destroying the DNA of the cancer cell
same,volume of the tumoural lesions in solid tumours,DNA of the cancer cell,reducing the volume of the tumoural lesions in solid tumours
same,effectiveness as a therapeutic agent for cancer pathologies,[1],effective
same,therapeutic agent against neuronal cells affected by the Alzheimer's disease,"amyloid plaques; average dose 3,700 MBq",carries out the function of therapeutic agent
same,radiotracer for the diagnosis of the Alzheimer's disease,amyloid plaques; average dose of 370 MBq,capable of acting as a radiotracer
